Source: ChEMBL document CHEMBL1909046, “DrugMatrix in vitro pharmacology data”

How the values were obtained:
Nitric oxide synthase 1 = Nitric oxide synthase 1 (Rattus norvegicus, UniProt P29476); assay type: tissue-based, Cerebellum; also: in other assays of this panel Not Active means under 50% inhibition at 10 µM
[1] = target: Protein phosphatase 3 catalytic subunit alpha (Homo sapiens, UniProt Q08209); set-up: species or system Escherichia coli;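 also: inhibition of calcineurin (PP2B) enzyme activity, measured with DiFMUP as the substrate; in other assays of this panel Not Active means under 50% inhibition at 10 µM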
Adenosine receptor A1 = target: T1, Adenosine receptor A1 (Homo sapiens, UniProt P30542); assay type: cell membranes, CHO, Membrane; settings: cho;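 also: radioligand binding assay at the adenosine A1 receptor, with DPCPX serving as the labelled ligand; in other assays of this panel Not Active means under 50% inhibition at 10 µM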
T1 sequence (P30542 whole entry): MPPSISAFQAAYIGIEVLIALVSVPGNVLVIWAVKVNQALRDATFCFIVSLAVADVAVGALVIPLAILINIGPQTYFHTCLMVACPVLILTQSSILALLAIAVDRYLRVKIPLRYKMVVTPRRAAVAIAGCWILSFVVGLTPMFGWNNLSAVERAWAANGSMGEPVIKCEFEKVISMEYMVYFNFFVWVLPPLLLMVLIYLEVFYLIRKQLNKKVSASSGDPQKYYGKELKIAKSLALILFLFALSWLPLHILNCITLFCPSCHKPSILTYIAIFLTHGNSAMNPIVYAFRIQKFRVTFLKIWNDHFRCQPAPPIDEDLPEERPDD

[2] = target: Receptor tyrosine-protein kinase erbB-2 (Homo sapiens, UniProt P04626); test: biochemical; assay type: cell-based, Insect cells; settings: insect cells;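 also: inhibition of HER2 kinase enzyme activity, measured with Poly(Glu:Tyr) as the phosphorylation substrate; in other assays of this panel Not Active means under 50% inhibition at 10 µM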
[3] = target: T2, Neuropeptide Y receptor type 1 (Homo sapiens, UniProt P25929); assay type: cell membranes, Membrane; settings: sk-n-mc; also: in other assays of this panel Not Active means under 50% inhibition at 10 µM
T2 sequence (P25929 whole entry): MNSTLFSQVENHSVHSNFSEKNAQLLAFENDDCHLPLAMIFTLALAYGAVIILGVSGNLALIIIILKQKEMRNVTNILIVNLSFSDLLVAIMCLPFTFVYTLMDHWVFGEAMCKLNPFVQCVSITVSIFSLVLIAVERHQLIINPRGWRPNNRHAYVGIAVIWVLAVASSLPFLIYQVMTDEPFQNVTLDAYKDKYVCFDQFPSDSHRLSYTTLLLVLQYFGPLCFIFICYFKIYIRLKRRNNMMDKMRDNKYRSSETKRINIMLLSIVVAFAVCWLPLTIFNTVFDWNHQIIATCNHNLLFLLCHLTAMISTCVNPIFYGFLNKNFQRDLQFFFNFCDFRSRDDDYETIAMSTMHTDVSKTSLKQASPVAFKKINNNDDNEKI

[4] = DRUGMATRIX: Interleukin IL-1 radioligand binding (ligand: [125I] interleukin 1beta); assay type: cell membranes, Membrane; settings: nih3t3; Not Active = under 50% inhibition at 10 µM
Adenosine receptor A3 = target: T3, Adenosine receptor A3 (Homo sapiens, UniProt P0DMS8); assay type: cell membranes, CHO-K1, Membrane; settings: cho-k1
T3 sequence (P0DMS8 whole entry): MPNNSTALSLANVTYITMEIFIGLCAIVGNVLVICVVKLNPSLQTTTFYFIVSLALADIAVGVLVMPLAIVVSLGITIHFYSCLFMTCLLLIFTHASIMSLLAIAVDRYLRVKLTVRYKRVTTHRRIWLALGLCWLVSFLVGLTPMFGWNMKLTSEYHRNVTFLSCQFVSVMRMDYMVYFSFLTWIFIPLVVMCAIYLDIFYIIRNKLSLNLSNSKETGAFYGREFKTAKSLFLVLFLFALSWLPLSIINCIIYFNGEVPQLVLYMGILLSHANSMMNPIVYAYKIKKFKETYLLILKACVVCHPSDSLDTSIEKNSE

Nitric oxide synthase 1, sequence (P29476 whole entry): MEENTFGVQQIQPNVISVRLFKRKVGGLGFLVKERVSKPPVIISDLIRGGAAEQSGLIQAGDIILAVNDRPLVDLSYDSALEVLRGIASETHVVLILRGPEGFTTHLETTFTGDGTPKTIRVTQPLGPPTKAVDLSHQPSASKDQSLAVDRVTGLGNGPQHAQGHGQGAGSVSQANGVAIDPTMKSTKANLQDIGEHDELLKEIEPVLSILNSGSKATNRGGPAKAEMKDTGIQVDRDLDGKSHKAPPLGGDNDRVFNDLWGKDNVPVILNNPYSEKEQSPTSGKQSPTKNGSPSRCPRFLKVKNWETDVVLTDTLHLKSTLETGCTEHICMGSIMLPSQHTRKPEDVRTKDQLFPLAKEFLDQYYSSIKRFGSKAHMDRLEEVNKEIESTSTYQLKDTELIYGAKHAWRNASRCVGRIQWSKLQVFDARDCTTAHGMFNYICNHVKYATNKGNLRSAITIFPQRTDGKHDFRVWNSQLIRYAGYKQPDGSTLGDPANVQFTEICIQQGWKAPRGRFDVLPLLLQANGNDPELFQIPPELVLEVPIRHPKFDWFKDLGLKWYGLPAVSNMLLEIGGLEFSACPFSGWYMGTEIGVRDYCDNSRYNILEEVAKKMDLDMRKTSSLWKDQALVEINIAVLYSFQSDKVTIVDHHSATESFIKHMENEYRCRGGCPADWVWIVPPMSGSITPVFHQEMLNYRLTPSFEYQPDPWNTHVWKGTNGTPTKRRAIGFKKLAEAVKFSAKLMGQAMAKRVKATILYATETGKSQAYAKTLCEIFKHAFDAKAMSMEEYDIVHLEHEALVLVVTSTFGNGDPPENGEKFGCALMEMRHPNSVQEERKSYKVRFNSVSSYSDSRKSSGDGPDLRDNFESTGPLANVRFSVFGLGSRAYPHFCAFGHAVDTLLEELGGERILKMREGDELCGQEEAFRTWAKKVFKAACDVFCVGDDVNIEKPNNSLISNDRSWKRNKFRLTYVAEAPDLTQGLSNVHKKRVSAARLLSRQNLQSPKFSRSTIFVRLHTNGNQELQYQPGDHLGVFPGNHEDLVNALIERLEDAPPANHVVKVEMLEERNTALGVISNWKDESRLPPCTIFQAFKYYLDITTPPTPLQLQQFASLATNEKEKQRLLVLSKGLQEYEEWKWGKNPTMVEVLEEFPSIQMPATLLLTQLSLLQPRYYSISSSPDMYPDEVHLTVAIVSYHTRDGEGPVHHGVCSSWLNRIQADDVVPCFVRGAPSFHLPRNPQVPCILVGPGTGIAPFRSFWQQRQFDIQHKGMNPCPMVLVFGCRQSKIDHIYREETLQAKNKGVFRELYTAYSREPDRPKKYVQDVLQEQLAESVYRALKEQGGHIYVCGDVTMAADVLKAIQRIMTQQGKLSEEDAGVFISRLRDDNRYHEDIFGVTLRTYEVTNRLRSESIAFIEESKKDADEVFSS

C=C(CC)C(=O)c1ccc(OCC(=O)O)c(Cl)c1Cl [ETHACRYNIC ACID]
Not Active: IC50 (Nitric oxide synthase 1) | IC50 [1] | IC50 (Adenosine receptor A1) | IC50 [2] | IC50 [3] | IC50 [4] | Ki [4] | IC50 (Adenosine receptor A3)

CC(C(=O)O)c1ccc(-c2ccccc2)c(F)c1 (centres undefined) [FLURBIPROFEN]
Not Active: IC50 (Nitric oxide synthase 1) | IC50 [1] | IC50 (Adenosine receptor A1) | IC50 [2] | IC50 [3] | IC50 [4] | Ki [4] | IC50 (Adenosine receptor A3)

COc1ccccc1OCC(O)COC(N)=O (centres undefined) [METHOCARBAMOL]
Not Active: IC50 (Nitric oxide synthase 1) | IC50 [1] | IC50 (Adenosine receptor A1) | IC50 [2] | IC50 [3] | IC50 [4] | Ki [4] | IC50 (Adenosine receptor A3)

CC(C(=O)O)c1ccc(CC2CCCC2=O)cc1 (centres undefined) [LOXOPROFEN]
Not Active: IC50 (Nitric oxide synthase 1) | IC50 [1] | IC50 (Adenosine receptor A1) | IC50 [2] | IC50 [3] | IC50 [4] | Ki [4] | IC50 (Adenosine receptor A3)

CCCCC1C(=O)N(c2ccccc2)N(c2ccccc2)C1=O [PHENYLBUTAZONE]
Not Active: IC50 (Nitric oxide synthase 1) | IC50 [1] | IC50 (Adenosine receptor A1) | IC50 [2] | IC50 [3] | IC50 [4] | Ki [4] | IC50 (Adenosine receptor A3)

CCN[C@@H](C)Cc1cccc(C(F)(F)F)c1 [DEXFENFLURAMINE]
Not Active: IC50 (Nitric oxide synthase 1) | IC50 [1] | IC50 (Adenosine receptor A1) | IC50 [2] | IC50 [3] | IC50 [4] | Ki [4] | IC50 (Adenosine receptor A3)

COc1ccccc1OCC(O)CO (centres undefined) [GUAIFENESIN]
Not Active: IC50 (Nitric oxide synthase 1) | IC50 [1] | IC50 (Adenosine receptor A1) | IC50 [2] | IC50 [3] | IC50 [4] | Ki [4] | IC50 (Adenosine receptor A3)

CCC(=O)O[C@H]1[C@H](O[C@@H]2[C@@H](C)[C@H](O[C@H]3C[C@@](C)(OC)[C@@H](O)[C@H](C)O3)[C@@H](C)C(=O)O[C@H](CC)[C@@](C)(O)[C@H](O)[C@@H](C)C(=O)[C@H](C)C[C@@]2(C)O)O[C@H](C)C[C@@H]1N(C)C [ERYTHROMYCIN PROPIONATE]
Not Active: IC50 (Nitric oxide synthase 1) | IC50 [1] | IC50 (Adenosine receptor A1) | IC50 [2] | IC50 [3] | IC50 [4] | Ki [4] | IC50 (Adenosine receptor A3)

C=C1/C(=C\C=C2/CCC[C@]3(C)[C@@H]([C@H](C)CCCC(C)C)CC[C@@H]23)C[C@@H](O)C[C@@H]1O [ALFACALCIDOL]
Not Active: IC50 (Nitric oxide synthase 1) | IC50 [1] | IC50 (Adenosine receptor A1) | IC50 [2] | IC50 [3] | IC50 [4] | Ki [4] | IC50 (Adenosine receptor A3)

CS(=O)(=O)OCCCCOS(C)(=O)=O [BUSULFAN]
Not Active: IC50 (Nitric oxide synthase 1) | IC50 [1] | IC50 (Adenosine receptor A1) | IC50 [2] | IC50 [3] | IC50 [4] | Ki [4] | IC50 (Adenosine receptor A3)

C[C@]12CCC(=O)C=C1CC[C@@H]1[C@@H]2[C@@H](O)C[C@@]2(C)[C@H]1CC[C@]2(O)C(=O)CO [HYDROCORTISONE]
Not Active: IC50 (Nitric oxide synthase 1) | IC50 [1] | IC50 (Adenosine receptor A1) | IC50 [2] | IC50 [3] | IC50 [4] | Ki [4] | IC50 (Adenosine receptor A3)

POLYVINYL ALCOHOL
Not Active: IC50 (Nitric oxide synthase 1) | Ki (Nitric oxide synthase 1) | IC50 [1] | Ki [1] | IC50 (Adenosine receptor A1) | Ki (Adenosine receptor A1) | IC50 [2] | Ki [2] | IC50 [3] | Ki [3] | IC50 [4] | Ki [4] | IC50 (Adenosine receptor A3) | Ki (Adenosine receptor A3)

Cc1cnc(C(=O)NCCc2ccc(S(=O)(=O)NC(=O)NC3CCCCC3)cc2)cn1 [GLIPIZIDE]
Not Active: IC50 (Nitric oxide synthase 1) | IC50 (Adenosine receptor A1) | IC50 [2] | IC50 [3] | IC50 [4] | Ki [4] | IC50 (Adenosine receptor A3)
